Results: patent US4864023A, “Pyrido(3,2,1-IJ)-1,3,4-benzoxadiazine derivatives” (priority 1988, dated 1989)
Values after ≈ are worked out from the molar mass of the structure shown. Like-named read-outs stand apart in the source and are kept apart here.

Experiments:
[1] = test system: Salmonella typhimurium IFO 12529; experiment: in vitro antibacterial activity, standard agar dilution method; type: cell-based; settings: Salmonella enterica, aerobic, read-out: minimum inhibitory concentration (MIC)
[2] = test system: Staphylococcus aureus NR 2855; experiment: as above; type: cell-based; settings: NR2855; Staphylococcus aureus NR 2855; aerobic; agar dilution; read-out: minimum inhibitory concentration (MIC)
[3] = test system: Enterobacter cloacae NR 2946; experiment: as above; type: cell-based; settings: NR2946, aerobic, read-out: minimum inhibitory concentration (MIC)
[4] = test system: Pseudomonas aeruginosa A3; experiment: as above; type: cell-based; settings: aerobic, read-out: minimum inhibitory concentration (MIC)
[5] = test system: Proteus vulgaris OX19 ATCC 6898; experiment: as above; type: cell-based; settings: ATCC6898, aerobic, read-out: minimum inhibitory concentration (MIC)
[6] = test system: Bacillus subtilis PCI 219; experiment: as above; type: cell-based; settings: PCI219, aerobic, read-out: minimum inhibitory concentration (MIC)
[7] = test system: Citrobacter freundii IFO 12681; experiment: as above; type: cell-based; settings: IFO12681, aerobic, read-out: minimum inhibitory concentration (MIC)
[8] = test system: Bordetella bronchiseptica ATCC 4617; experiment: as above; type: cell-based; settings: ATCC4617, aerobic, read-out: minimum inhibitory concentration (MIC)
[9] = test system: Enterococcus faecalis NR 2943; experiment: as above; type: cell-based; settings: NR2943, aerobic, read-out: minimum inhibitory concentration (MIC)
[10] = test system: Staphylococcus aureus FDA 209P JC-1; experiment: as above; type: cell-based; settings: FDA209P, read-out: minimum inhibitory concentration (MIC)
[11] = test system: Enterobacter aerogenes NR 2945; experiment: as above; type: cell-based; settings: Klebsiella aerogenes, NR2945, aerobic, read-out: minimum inhibitory concentration (MIC)
[12] = test system: Alcaligenes faecalis IFO 13111; experiment: as above; type: cell-based; settings: IFO13111, aerobic, read-out: minimum inhibitory concentration (MIC)
[13] = test system: Escherichia coli NIHJ JC-2; experiment: as above; type: cell-based; settings: NIHJJC2, aerobic, read-out: minimum inhibitory concentration (MIC)
[14] = test system: Klebsiella pneumoniae FDA PCI 602; experiment: as above; type: cell-based; settings: FDAPCI602, aerobic, read-out: minimum inhibitory concentration (MIC)
[15] = test system: Escherichia coli NR 2630; experiment: as above; type: cell-based; settings: NR2630; Escherichia coli NR 2630; aerobic; agar dilution; read-out: minimum inhibitory concentration (MIC)
[16] = test system: Proteus rettgeri ATCC 14505; experiment: as above; type: cell-based; settings: Providencia rettgeri, ATCC14505, aerobic, read-out: minimum inhibitory concentration (MIC)
[17] = test system: Pseudomonas aeruginosa NR 2950; experiment: as above; type: cell-based; settings: NR2950, aerobic, read-out: minimum inhibitory concentration (MIC)
[18] = test system: Staphylococcus epidermidis NR 2942; experiment: as above; type: cell-based; settings: NR2942, aerobic, read-out: minimum inhibitory concentration (MIC)
[19] = test system: Staphylococcus aureus Smith; experiment: as above; type: cell-based; settings: Staphylococcus aureus Smith; aerobic; agar dilution; read-out: minimum inhibitory concentration (MIC)
[20] = test system: Staphylococcus epidermidis IFO 12993; experiment: as above; type: cell-based; settings: IFO12993, aerobic, read-out: minimum inhibitory concentration (MIC)
[21] = test system: Serratia marcescens IFO 12648; experiment: as above; type: cell-based; settings: IFO12648, aerobic, read-out: minimum inhibitory concentration (MIC)
[22] = acute toxicity by oral administration; settings: mouse, in vivo; oral administration, ICR mice; read-out: LD50
From the text: The acute toxicity of these compounds was examined by oral administration in ICR mice.

[23] = test system: Pseudomonas stutzeri IFO 12695; experiment: in vitro antibacterial activity, standard agar dilution method; type: cell-based; settings: Stutzerimonas stutzeri, IFO12695, aerobic, read-out: minimum inhibitory concentration (MIC)
[24] = Staphylococcus aureus FDA 209P JC-1, aerobic, agar dilution

SMILES	MIC [1] [µg/mL]	MIC [2] [µg/mL]	MIC [3] [µg/mL]	MIC [4] [µg/mL]	MIC [5] [µg/mL]	MIC [6] [µg/mL]	MIC [7] [µg/mL]	MIC [8] [µg/mL]	MIC [9] [µg/mL]	MIC [11] [µg/mL]	MIC [12] [µg/mL]	MIC [13] [µg/mL]	MIC [14] [µg/mL]	MIC [16] [µg/mL]	MIC [17] [µg/mL]	MIC [18] [µg/mL]	MIC [19] [µg/mL]	MIC [20] [µg/mL]	MIC [21] [µg/mL]	MIC [23] [µg/mL]	further results
CCNCC1CCN(c2c(F)cc3c(=O)c(C(=O)O)cn4c3c2OCN4C)C1 (stereo not shown) [Example 18]	0.025 (≈ 0.064 µM)	0.1 (≈ 0.256 µM)	0.05 (≈ 0.128 µM)	0.78 (≈ 2 µM)	0.025 (≈ 0.064 µM)	0.013 (≈ 0.0333 µM)	0.1 (≈ 0.256 µM)	3.13 (≈ 8.02 µM)	1.56 (≈ 4 µM)	0.05 (≈ 0.128 µM)	6.25 (≈ 16 µM)	0.05 (≈ 0.128 µM)	0.39 (≈ 0.999 µM)	0.39 (≈ 0.999 µM)	6.25 (≈ 16 µM)	0.1 (≈ 0.256 µM)	0.025 (≈ 0.064 µM)	0.1 (≈ 0.256 µM)	0.39 (≈ 0.999 µM)	0.025 (≈ 0.064 µM)	MIC [10, 24]: 0.05 µg/mL (≈ 0.128 µM); MIC [15]: 0.013 µg/mL (≈ 0.0333 µM); LD50 [22]: > 2000 mg/kg
CC1CN(c2c(F)cc3c(=O)c(C(=O)O)cn4c3c2OCN4C)CCN1 (stereo not shown) [Example 7, 9-fluoro-3-methyl-10-(3-methyl-1-piperazinyl)-7-oxo-2,3-dihydro-7H-pyrido[3,2,1-ij]-1,3,4-benzoxadiazine-6-carboxylic acid]	0.05 (≈ 0.138 µM)	1.56 (≈ 4.31 µM)	0.1 (≈ 0.276 µM)	0.2 (≈ 0.552 µM)	0.025 (≈ 0.069 µM)	0.1 (≈ 0.276 µM)	0.05 (≈ 0.138 µM)	3.13 (≈ 8.64 µM)	12.5 (≈ 34.5 µM)	0.05 (≈ 0.138 µM)	6.25 (≈ 17.2 µM)	0.1 (≈ 0.276 µM)	0.39 (≈ 1.08 µM)	0.78 (≈ 2.15 µM)	3.13 (≈ 8.64 µM)	0.78 (≈ 2.15 µM)	0.2 (≈ 0.552 µM)	0.78 (≈ 2.15 µM)	0.2 (≈ 0.552 µM)	0.05 (≈ 0.138 µM)	MIC ([10]; Staphylococcus aureus): 0.39 µg/mL (≈ 1.08 µM); MIC [15]: 0.025 µg/mL (≈ 0.069 µM); LD50 [22]: > 2000 mg/kg
CN1COc2c(N3CCCNCC3)c(F)cc3c(=O)c(C(=O)O)cn1c23 [Example 16]	0.1 (≈ 0.276 µM)	6.25 (≈ 17.2 µM)	0.1 (≈ 0.276 µM)	0.39 (≈ 1.08 µM)	0.1 (≈ 0.276 µM)	0.2 (≈ 0.552 µM)	0.1 (≈ 0.276 µM)	25 (≈ 69 µM)	25 (≈ 69 µM)	0.05 (≈ 0.138 µM)	50 (≈ 138 µM)	0.2 (≈ 0.552 µM)	1.56 (≈ 4.31 µM)	1.56 (≈ 4.31 µM)	6.25 (≈ 17.2 µM)	1.56 (≈ 4.31 µM)	0.39 (≈ 1.08 µM)	1.56 (≈ 4.31 µM)	0.39 (≈ 1.08 µM)	0.05 (≈ 0.138 µM)	MIC [10, 24]: 0.39 µg/mL (≈ 1.08 µM); LD50 [22]: > 2000 mg/kg
CCN1CCN(c2c(F)cc3c(=O)c(C(=O)O)cn4c3c2OCN4C)CC1 [Example 42]	0.025 (≈ 0.0664 µM)	0.39 (≈ 1.04 µM)	0.05 (≈ 0.133 µM)	0.39 (≈ 1.04 µM)	0.025 (≈ 0.0664 µM)	0.05 (≈ 0.133 µM)	0.05 (≈ 0.133 µM)	0.39 (≈ 1.04 µM)	6.25 (≈ 16.6 µM)	0.025 (≈ 0.0664 µM)	1.56 (≈ 4.14 µM)	0.05 (≈ 0.133 µM)	0.39 (≈ 1.04 µM)	0.39 (≈ 1.04 µM)	3.13 (≈ 8.32 µM)	0.39 (≈ 1.04 µM)	0.39 (≈ 1.04 µM)	0.39 (≈ 1.04 µM)	0.1 (≈ 0.266 µM)	0.1 (≈ 0.266 µM)	MIC [10, 24]: 0.39 µg/mL (≈ 1.04 µM); MIC [15]: 0.025 µg/mL (≈ 0.0664 µM)
CN1COc2c(N3CCC(CN)C3)c(F)cc3c(=O)c(C(=O)O)cn1c23 (stereo not shown) [Example 54, 10-[3-(aminomethyl)-1-pyrrolidinyl]-9-fluoro-3-methyl-7-oxo-2,3-dihydro-7H-pyrido[3,2,1-ij]-1,3,4-benzoxadiazine-6-carboxylic acid]	0.025 (≈ 0.069 µM)	0.2 (≈ 0.552 µM)	0.1 (≈ 0.276 µM)	0.2 (≈ 0.552 µM)	0.013 (≈ 0.0359 µM)	0.025 (≈ 0.069 µM)	0.1 (≈ 0.276 µM)	3.13 (≈ 8.64 µM)	1.56 (≈ 4.31 µM)	0.025 (≈ 0.069 µM)	6.25 (≈ 17.2 µM)	0.1 (≈ 0.276 µM)	0.78 (≈ 2.15 µM)	0.78 (≈ 2.15 µM)	1.56 (≈ 4.31 µM)	0.1 (≈ 0.276 µM)	0.025 (≈ 0.069 µM)	0.1 (≈ 0.276 µM)	0.39 (≈ 1.08 µM)	0.013 (≈ 0.0359 µM)	MIC [10, 24]: 0.013 µg/mL (≈ 0.0359 µM); MIC [15]: 0.025 µg/mL (≈ 0.069 µM)
